In series [1] the test system is A-549. Put plainly: In vitro antitumor cytotoxicity, MTT microculture assay, A-549. As to conditions: Homo sapiens, A549, 144 h. Format: cell-based. As to the method: (§1) The in vitro antitumor activity cytotoxicity was measured by a microculture assay using 3-(4,5-dimethylthiazol-2-yl)-2,5-diphenyl-tetrazolium bromide (MTT). This assay has an advantage over in vivo assay in that results are obtained within a week as opposed to several months. The assay was done in 96-well microtiter plates. The MTT assay is based on the transformation into a dark blue formazan product by dehydrogenase in the mitochondria of live tumor cells after exposure to drug for 6 days [M. C. Alley, D. A. Scudiero, A. Monks, M. L. Hursey, M. J. Czerwinski, D. L. Fine, B. J. Abbott, J. G. Mayo, R. H. Shoemaker and M. R. Boyd, Cancer Res., 48, 589, 1988.] Thus, only live cells are stained and can be measured at 570 nm. Antitumor cytotoxicity is reported as GI50, effect drug dose at which cell growth is retarded to 50% of control culture of tumor cells. The active compounds must have GI50 values that are less then 10^-4 M or 10 μg/ml.
(§2) Antitumor Cytotoxicity of Taxanes
(§3) Against Human Tumor Cell Lines

Series [2] has as its system MCF-7. Put plainly: In vitro antitumor cytotoxicity, MTT microculture assay, MCF-7. Format: cell-based. Conditions: Homo sapiens, MCF7, 144 h. On the procedure: as §1, §2, §3
MCF7: breast adenocarcinoma

The test system of series [3] is HT-29. Put plainly: In vitro antitumor cytotoxicity, MTT microculture assay, HT-29. Format: cell-based. Conditions: Homo sapiens. On the procedure: as §1, §2, §3
HT29: colon adenocarcinoma

Series [4] concerns tubulin. Put plainly: FAT tubulin polymerization assay. Format: biochemical.
Series [5] relates to tubulin. As to conditions: cited from earlier work.
The subject of series [6] is drug-refractory ovarian cancer. As to conditions: in vivo; cited from earlier work.
The conditions of series [7]: cited from earlier work.
The mark [8] stands for this setting: A-549 lung carcinoma, drug exposure 6 days, MTT, 570 nm, read-out: GI50.
Where [9] appears, read: MCF-7 breast adenocarcinoma, drug exposure 6 days, MTT, 570 nm, read-out: GI50.
Setting [10] is: 144 h, HT-29 colon adenocarcinoma, drug exposure 6 days, MTT, 570 nm, read-out: GI50.

Converted amounts (≈) assume the structure as drawn. Like-named read-outs stand apart in the source and are kept apart here. Bounds are passed on as bounds.

In general, GI50 refers to the concentration at which growth is held to half of that of the control.

As to `C/C=C(\C)C(=O)N[C@@H](c1ccccc1)[C@@H](O)C(=O)O[C@H]1C[C@@]2(O)[C@@H](OC(=O)c3ccccc3)[C@@H]3[C@]4(OC(C)=O)CO[C@@H]4C[C@H](O)[C@@]3(C)C(=O)[C@H](OC(C)=O)C(=C1C)C2(C)C` [Caphalomannine, cephalomannine], the 50% growth inhibitory concentration (GI50) is 0.1 ng/mL (≈ 0.12 nM) in series [1]; 0.8 ng/mL (≈ 0.962 nM) in series [2]; 0.2 ng/mL (≈ 0.24 nM) in series [3] (HT-29, 144 h).

Consider `CC(=O)O[C@H]1C(=O)[C@@]2(C)[C@H]([C@H](OC(=O)c3ccccc3)[C@]3(O)C[C@H](OC(=O)[C@H](O)[C@@H](NC(=O)/C(C)=C/CO)c4ccccc4)C(C)=C1C3(C)C)[C@]1(OC(C)=O)CO[C@@H]1C[C@@H]2O` [L-745,596], for which the values for the concentration for 50% growth inhibition (GI50) in series [1] (setting [8]), in series [2] (setting [9]) and in series [3] (setting [10]) were 30 ng/mL (≈ 35.4 nM), 50 ng/mL (≈ 59 nM) and 20 ng/mL (≈ 23.6 nM), respectively.

Take `CC(=O)O[C@H]1C(=O)[C@@]2(C)[C@H]([C@H](OC(=O)c3ccccc3)[C@]3(O)C[C@H](OC(=O)[C@H](O)[C@@H](NC(=O)c4ccc(O)cc4)c4ccccc4)C(C)=C1C3(C)C)[C@]1(OC(C)=O)CO[C@@H]1C[C@@H]2O` [L-760,006]: the figures for the GI50 in series [1] (setting [8]), in series [2] (setting [9]) and in series [3] (setting [10]) were 0.04 ng/mL (≈ 0.046 nM), 0.01 ng/mL (≈ 0.0115 nM) and 0.08 ng/mL (≈ 0.092 nM), respectively.

As to `CC(=O)O[C@@]12CO[C@@H]1C[C@H](O)[C@@]1(C)C(=O)[C@H](OC(=O)CO)C3=C(C)[C@@H](OC(=O)[C@H](O)[C@@H](NC(=O)c4ccccc4)c4ccccc4)C[C@@](O)([C@@H](OC(=O)c4ccccc4)[C@H]21)C3(C)C` [L-760,007, 10-hydroxyacetyl taxol], the results for the GI50 in series [1] (setting [8]), in series [2] (setting [9]) and in series [3] (setting [10]) were below 0.01 ng/mL, 0.04 ng/mL (≈ 0.046 nM) and 0.01 ng/mL (≈ 0.0115 nM), respectively.

Turning to `CC(=O)O[C@H]1C(=O)[C@@]2(C)[C@H]([C@H](OC(=O)c3ccccc3)[C@]3(O)C[C@H](OC(=O)[C@H](O)[C@@H](NC(=O)c4ccccc4)c4ccccc4)C(C)=C1C3(C)C)[C@]1(OC(C)=O)CO[C@@H]1C[C@@H]2O` [Taxol], the GI50 in series [1] (setting [8]) is 0.0004 ng/mL (≈ 0.000468 nM); in series [2] (setting [9]), 0.002 ng/mL (≈ 0.00234 nM); in series [3] (setting [10]), 0.0001 ng/mL (≈ 0.000117 nM). The “IC50 in the FAT tubulin polymerization assay” value in series [4] is 17 ng/mL (≈ 19.9 nM). In addition, the “effect on microtubule / tubulin polymer formation” value in series [5] is “promotes formation of microtubules”. Also, the “activity against drug-refractory ovarian cancer” value in series [6] was “active agent against drug-refractory ovarian cancer”. The “toxic effects in phase 1 clinical trials” value in series [7] is “did not show excessive toxic effects”.

As for `CC[C@]1(O)C[C@@H]2CN(CCc3c([nH]c4ccccc34)[C@@](C(=O)OC)(c3cc4c(cc3OC)N(C)[C@H]3[C@@](O)(C(=O)OC)[C@H](OC(C)=O)[C@]5(CC)C=CCN6CC[C@]43[C@@H]65)C2)C1` [vinblastine], in series [5], the “effect on microtubule / tubulin polymer formation” value was “prevent microtubule formation”.

Turning to `CC[C@]1(O)C[C@H]2CN(CCc3c([nH]c4ccccc34)[C@@](C(=O)OC)(c3cc4c(cc3OC)N(C=O)[C@H]3[C@@](O)(C(=O)OC)[C@H](OC(C)=O)[C@]5(CC)C=CCN6CC[C@]43[C@@H]65)C2)C1` [vineristine], in series [5], the “effect on microtubule / tubulin polymer formation” value is on record as “prevent microtubule formation”.
